In brackets after ≈: the same amount, converted by molar mass.
Molecular target: T1, Japanese termite acetylcholinesterase (AChE)
T1 construct: gene AChE1; native; crude Triton X-100 extract (15,000 x g supernatant) of 50 whole adult termites, not purified
Experiment: modified Ellman assay, […] nm, probit analysis
Assay type: biochemical, Reticulitermes speratus
Conditions: acetylthiocholine iodide substrate; pH 7.8 extraction buffer; room temperature; 10 min pre-incubation; crude extract

## C=C/C(C)=C\CC=C(C)C [compound 6, cis-Ocimene]
  IC50: 131 µg/mL (≈ 962 µM)

— PMC6271168, “Fumigant Toxicity of Oriental Sweetgum (Liquidambar orientalis) and Valerian (Valeriana wallichii) Essential Oils and Their Components, Including Their Acetylcholinesterase Inhibitory Activity, against Japanese Termites (Reticulitermes speratus)” (Molecules, 2014)
